Laboratory results taken from patent US20020035097A1, “Method of preventing and treating chemotherapy-induced alopecia” (priority 1991, published 2002).
Several values for one entry are separate records, joined by “and”; a condition that tells them apart may be missing. Equal entries are not always repeated. Entries after “also recorded” stand apart in the source; their conditions may differ.

How the values were obtained:
[1] = tested on: Cytoxan/Adriamycin-induced alopecia; assay: Cytoxan/Adriamycin combination-induced alopecia in young rats; assay type: in vivo, rat; conditions: 0.2 μg in 0.15 ml absolute ethanol topically over head and neck, pretreatment; 11 rats per group
Description: Eight 4-day old Sprague Dawley rats were randomized in two groups of 4 rats each. Group I, received EGF […] s.c. on the head daily for 7 days. Group II received buffer injections and served as controls. One day after stopping EGF or buffer injections all rats received Cytoxan 25 mg/kg i.p.×1 day and Adriamycin 2.5 mg/kg i.p.×3 days. […] (FIG. 5).
(§1) 1,25-Dihydroxyvitamin D3 was dissolved in absolute ethanol and applied topically with an applicator. Control animals were similarly treated with the same amount of ethanol. Animals were then kept individually separated for a period of three hours following which the treated area was carefully washed with soap and water and dried. Treatment was given daily beginning on day 5 after birth and ending on day 10.
All chemotherapies were given I.P. and started at 11 days of age. CTX, 35 mg/kg, was given for one day only. VP-16, 1.5 mg/kg, was given for three days. For CTX and ADM combination, CTX, 25 mg/kg was given for one day and ADM, 2.5 mg/kg, for three days. […] Alopecia was recorded on the tenth day from beginning chemotherapy.
A total of 4 experiments were carried out. In the first experiment, protection from Cytoxan-induced alopecia was examined. The experimental group was pretreated with 0.2 μg of 1,25-dihydroxyvitamin D3 in 0.15 ml of absolute ethanol applied topically over the head and neck and the control group received 0.15 ml of alcohol. […] The second experiment was carried out under similar conditions to examine protection from VP-16-induced alopecia. […] The third experiment was designed to examine protection from alopecia induced by Cytoxan-Adriamycin combination. There were 11 rats in each group. […] In the fourth experiment, protection from VP-16-induced alopecia was similarly examined except that the dose of 1,25-dihydroxyvitamin D3 was reduced to 0.1 μg in 0.1 ml absolute ethanol applied topically over the head area only.

VP-16-induced alopecia = assay: VP-16 (Etoposide)-induced alopecia in young rats; assay type: in vivo, rat
Description: Twelve 7 day old rats were randomized in two groups. Group I was treated daily with buffer 0.1 ml s.c. for four days. The second Group was treated daily with Vitamin D3 50 μg s.c. over head for four days. After stopping the buffer or Vitamin D3 treatment, all rats received 1.5 mg/kg i.p. of VP-16 (Etoposide) daily for three days.
as §1
All chemotherapies were given I.P. and started at 11 days of age. CTX, 35 mg/kg, was given for one day only. VP-16, 1.5 mg/kg, was given for three days. For CTX and ADM combination, CTX, 25 mg/kg was given for one day and ADM, 2.5 mg/kg, for three days. At these doses neither CTX nor ADM alone will produce alopecia. Alopecia was recorded on the tenth day from beginning chemotherapy.
A total of 4 experiments were carried out. In the first experiment, protection from Cytoxan-induced alopecia was examined. The experimental group was pretreated with 0.2 μg of 1,25-dihydroxyvitamin D3 in 0.15 ml of absolute ethanol applied topically over the head and neck and the control group received 0.15 ml of alcohol. All 10 rats in the control group became totally alopecic. […] The second experiment was carried out under similar conditions to examine protection from VP-16-induced alopecia. All 10 rats in the control group developed total body alopecia. […] The third experiment was designed to examine protection from alopecia induced by Cytoxan-Adriamycin combination. There were 11 rats in each group. Six rats in the control group developed alopecia over the head and neck and 5 rats developed total body alopecia. […] In the fourth experiment, protection from VP-16-induced alopecia was similarly examined except that the dose of 1,25-dihydroxyvitamin D3 was reduced to 0.1 μg in 0.1 ml absolute ethanol applied topically over the head area only. All 10 rats in the control group became completely alopecic.
as §1, with “RO 23-7553 (1,25 dihydroxy-16-ene-23-yne-cholecalciferol)” for “1,25-Dihydroxyvitamin D3”, “9” for “5”, “14.” for “10.”
On day 15 all animals received VP-16, 1.5 mg/kg i.p., for three days. Alopecia was recorded on day 25.
Thirteen rats were randomized in two groups. Experimental group, 7 rats; control group, 6 rats. The experimental group was pretreated with 1 μg of RO 23-7553 in 0.2 ml absolute ethanol applied topically over the neck and back and the control group received 0.2 ml of absolute ethanol. All six rats in the control group became totally alopecic over the neck and back.

Cytoxan-induced alopecia = Cytoxan-induced alopecia in young rats; assay type: in vivo, rat; conditions: 0.2 μg in 0.15 ml absolute ethanol topically over head and neck, pretreatment; CTX 35 mg/kg one day
hair growth [2] = assay: Stimulation of hair regrowth on shaven backs of rats; assay type: in vivo, rat
Description: The backs of nineteen 25 day old Sprague Dawley rats were shaven and randomized in two groups.
Group I (control 10 rats) received 0.1 ml of ethanol applied topically once daily to the shaven area for 14 days.
Group II (Calcitriol 9 rats) received 50 ng of 1,25-dihydroxyvitamin D3 in 0.1 ml of ethanol applied topically once daily to the shaven area for 14 days.
On day 15 stimulation of hair regrowth was assessed by reshaving an area 6 cm×6 cm in diameter. The hair was collected and weighed. The difference between two groups was highly statistically significant. P. value 0.003 (see Table III and FIG. 11).

hair growth [3] = assay: as above; assay type: in vivo, rat; conditions: noted in rats during the chemotherapy-induced alopecia studies
[4] = tested on: EGF receptors on breast cancer cells; conditions: literature; cited from earlier work
[5] = tested on: EGF receptors on a cell line established from rat calvaria; conditions: literature; cited from earlier work

C=C1/C(=C\C=C2/CCC[C@]3(C)[C@@H]([C@H](C)CCCC(C)(C)O)CC[C@@H]23)C[C@@H](O)C[C@@H]1O [1,25-dihydroxyvitamin D3]
Protection from alopecia induced by Cytoxan-Adriamycin combination [1]: all rats in the experimental group were protected | Protection from VP-16-induced alopecia (VP-16-induced alopecia; 0.1 μg in 0.1 ml absolute ethanol topically over the head area only, pretreatment, VP-16 1.5 mg/kg for three days): protected primarily at the site of 1,25-dihydroxyvitamin D3 application; also recorded: less generalized and was more limited to the site of application | Protection from VP-16-induced alopecia (VP-16-induced alopecia; 0.2 μg in 0.15 ml absolute ethanol topically over head and neck, pretreatment, VP-16 1.5 mg/kg for three days): all rats in the experimental group were protected | Extent of protection (VP-16-induced alopecia; 0.2 μg topically over head and neck, stated for the CTX, VP-16 and CTX+ADM experiments together): not limited to the site of application but involved the entire body | Protection from VP-16-induced alopecia (VP-16-induced alopecia; applied topically 0.5 μg daily in 50% ethanol or DMSO): protected | Protection from Cytoxan-induced alopecia (Cytoxan-induced alopecia): all animals in the experimental group were protected | Hair Weight, Mean S.E.M. (hair growth [2]; 50 ng in 0.1 ml ethanol topically once daily for 14 days, 9 rats, day 15, P value 0.003 vs control): 164 ± 13 Mg | Hair Weight (individual rats) (hair growth [2]; 50 ng in 0.1 ml ethanol topically once daily to shaven area for 14 days, 6 cm×6 cm area reshaved on day 15, listed as Calcitriol): 130 Mg and 177 Mg and 140 Mg and 147 Mg and 135 Mg and 202 Mg and 143 Mg and 150 Mg and 253 Mg | Effect on hair growth (hair growth [2]; administered topically in the rat): stimulation of hair growth | Coat and hair in the treated area (hair growth [3]): better coat of hair and longer hair in the treated area | Effect on EGF receptors [4]: increase EGF receptors | Effect on EGF receptors [5]: increase EGF receptors
